# Earlier results as cited in patent publication US20230314440A1, “METHOD OF TREATING CANCER” (priority 2020, published 2023).
# System: metastatic renal cell carcinoma (RCC)
# Details: patients with metastatic RCC; ESMO 2018, Presentation No. 882P
structure (smiles),measurement,value
"COc1cc2nccc(Oc3ccc(NC(=O)C4(C(=O)Nc5ccc(F)cc5)CC4)cc3)c2cc1OC [cabozantinib, N-(4-{[6,7-bis(methyloxy)quinolin-4-yl]oxy}phenyl)-N′-(4-fluorophenyl)cyclopropane-1,1-dicarboxamide]",effect on systemic tumor immunity,has an impact on systemic tumor immunity
